A word on the melting point: it is the temperature of the solid-liquid transition.

Experimental findings from patent US7468443B2, “Alkyl ether derivatives or salts thereof” (Toyama Chemical Co., Ltd., priority 2001, dated 2008) are described below.

Structures can show the parent of a compound that is named as a salt.

The nature of data set [1]: Metabolism in human liver microsomes. The format is in vitro ADME. As to conditions: incubation at 37° C. for 60 minutes, pooled human liver microsomes, NADPH generating system. The procedure:
[Metabolism in Human Liver Microsomes]
In a test tube were placed 50 μL of 100 mmol/L potassium phosphate buffer (pH 7.4) and 25 μL of 3 mg protein/mL pooled human liver microsomes (available from Gentest Inc.), and a solution prepared by blending 10 μL of 66 mmol/L sodium glucose 6-phosphate, 10 μL of 10 units/mL glucose 6-phosphate dehydrogenase, 10 μL of 26 mmol/L nicotinamide adenine dinucleotide phosphate oxidized form, 10 μL of 66 mmol/L magnesium chloride and 135 μL of 100 mmol/L potassium phosphate buffer (pH 7.4) was added thereto, followed by preincubation for 5 minutes. Thereto was added 50 μL of each test compound to a concentration of 6 μmol/L to initiate the reaction, and incubation was carried out at 37° C. for 60 minutes (final volume: 300 μL). The reaction was terminated by the addition of 600 μL of acetonitrile, followed by centrifugation at 12000×g and at 4° C. for 15 minutes. The supernatant was separated, concentrated by centrifugation under reduced pressure, and then subjected to high performance liquid chromatography, and the amount of the residual test compound after the metabolic reaction was determined.
The residual rate was calculated by the following equation: Residual rate (%)=[(peak area due to the test compound after 60 minutes of the reaction)/(peak area due to the test compound in the case of stopping the reaction by adding acetonitrile simultaneously with the addition of the test compound after the preincubation)]×100
In general terms: Microsomes from liver hold many membrane-bound enzymes, among them those of drug oxidation.

The subject of a further data set is PC12 cells. Description: Activity to accelerate neurite outgrowth (NGF-treated PC12 cells). Type of data set: cell-based, rat. As to conditions: test compound 10 μM with 2.5s-NGF 40 ng/mL, 48 hours; neutrite outgrowth rate due to NGF taken as 100%. The procedure:
[Activity to Accelerate Neurite Outgrowth]
PC12 cells [rat adrenomedullary chromaffinoma (NGF responders)] were cultured in an incubator (5% CO2, 37° C.) by using RPMI1640 medium (available from Nissui Pharmaceutical Co., Ltd.) containing 5% heat inactivated (56° C., 30 minutes) horse serum (available from Bio-Whittaker Inc.), 5% heat inactivated (56° C., 30 minutes) fetal calf serum (available from Sigma Chemical Co.) and 25 μg/ml gentamicin (available from GIBCO BRL).
The cultured PC12 cells were incubated at 37° C. for 30 minutes in phosphate-buffered physiological saline containing 1 mM EDTA, to be detached from a culture flask. The concentration of the cultured PC12 cells was adjusted to 5×10^4 cells/mL with RPMI1640 medium containing 1.5% heat inactivated horse serum, 1.5% heat inactivated fetal calf serum and 25 μg/ml gentamicin, and the resulting cell suspension was dispensed in 2 ml portions into 35-mm tissue culture dishes (mfd. by Falcon Inc.) coated with 0.01% polyornithine [dissolved in 150 mM borate buffer (pH 8.4)]. Then, 2.5s-NGF (available from Wako Pure Chemical Industries, Ltd.) [dissolved in phosphate-buffered physiological saline containing 0.1% bovine serum albumin] and each test compound were added to the medium at the same time so as to adjust their final concentrations to 40 ng/mL and 10 μM, respectively, followed by culturing under conditions of 5% CO2 and 37° C. After 48 hours of the culturing, cells were fixed in a 10% neutral formalin solution for 30 minutes, washed with phosphate-buffered physiological saline and distilled water, and then dried. […] The percentage of the number of cells having an neutrite extended to a length longer than the diameter of the cell body relative to the total number of cells observed (neutrite outgrowth rate) was calculated.
The activity to accelerate neutrite outgrowth was calculated according to the following expression as a neutrite outgrowth acceleration rate attained by the addition of each test compound, by taking a neutrite outgrowth rate due to NGF as 100%: (neutrite outgrowth rate attained by addition of each test compound)/(neutrite outgrowth rate due to NGF)×100 (%)

The test system of data set [2] is cultured neurons from cerebral cortices. Description: Activity to inhibit the neuronal death induced by Aβ (MTT assay). Type of data set: cell-based, Wistar strain rats. The conditions noted are these: concentration of 1 μM; Aβ (25 to 35 residues) 20 μmol/L. The protocol: [Activity to Inhibit the Neuronal Death Induced by Aβ]
Inhibitory effect on the death of cultured neurons induced by Aβ was investigated by modifying the method described in Brain Res., vol. 639, page 240 (1994).
Cerebral cortices isolated from the brains of embryos (aged 17 to 19 days) of Wistar strain rats were sliced, and then neurons were dissociated by trypsin treatment. The cells were seeded into a 48-well tissue culture plate at a density of 1×10^5 cells per well and cultured under conditions of 5% CO2 and 37° C. on Dulbecco's modified Eagle's medium added B27 supplement (available from GIBCO BRL) and 3.6 mg/mL glucose.
On the 12th to 13th day of the culture, a potassium chloride solution was added to the medium to adjust the final concentration of potassium chloride to 25 mmol/L. Immediately after this addition, each test compound was added to the medium. After 24 hours, Aβ (a peptides comprising 25 to 35 residues) dissolved in distilled water was added to the medium at a final concentration of 20 μmol/L. After another 24 hours, the medium was replaced with Dulbecco's modified Eagle's medium added B27 supplement and 3.6 mg/mL glucose and test compound.
The inhibitory activity of the test compound against the death of cultured neurons was determined by inhibition against the decrease of reducing ability of MMT. That is, MTT assay [J. Immuno. Methods, vol. […] Inhibition rate=[(MTT assay value of a group treated with Aβ and the drug)−(MTT assay value of a group treated with Aβ)]/[MTT assay value of an untreated group−MTT assay value of a group treated with Aβ]×100 (%).
For orientation: Formazan colour is commonly taken as a measure of viable cells.

A further data set concerns sciatic nerve. Description: Activity to accelerate nerve regeneration (cut sciatic nerve, silicone tube model). Type of data set: in vivo, SD strain rats. As to conditions: 1 mg/kg orally once a day from the seventh day; measured 21 days after cutting the nerve; regeneration distance relative to control group x100. The procedure:
[Activity to Accelerate Nerve Regeneration]
The test was carried out according to the method described in J. Pharmaco. Exp. Ther., Vol. 290, page 348 (1999) and Neuroscience, vol. 88, page 257 (1999).
SD strain rats (male, aged 6 to 7 weeks, and weighing 170 to 280 g) were anesthetized with pentobarbital, and the left sciatic nerve of each rat was exposed in the femoral region, separated from the surrounding connective tissue, and then cut at a distal position which was about 1 cm apart from the gluteus. The ends of the nerve were inserted into a sterilized silicone tube with a length of 8 mm (inside diameter 1.3 mm, and outside diameter 1.8 mm) to a depth of 3.5 mm so that a space of 1 mm might be formed in the middle of the tube. The ends of the nerve were fixed and the nerve was put back to the muscular tissue together with the tube, after which the incised part was sutured. On the seventh day, each test compound dissolved in distilled water was orally administered in a dose of 1 mg/kg, and thereafter the test compound was administered once a day for 13 days in the same manner as above.
Twenty-one days after cutting the nerve, the sciatic nerve was exposed again under pentobarbital anesthesia, and the nerve in the femoral region and the crural region was separated from the surrounding connective tissues, after which the silicone tube at the cut part was removed. A stimulation electrode was set on the proximal side with respect to the cut position, and a recording electrode was set at the most distal position in the crural region. An electric stimulus (voltage: 2 V, delay: 1 msec, and duration: 100 μsec) was given, and an action potential induced by the stimulus was recorded. The recording electrode was gradually moved toward the proximal, and the distance between the cut position and the most distal position at which an action potential had been obtained was measured as regeneration distance. Only distilled water was administered to a control group.
The sciatic nerve regeneration rate of the test compound was calculated according to the following expression: (regeneration distance of drug-treated group)/(regeneration distance of control group)×100 (%)

`NC1CCN(CCCOCCc2ccc3sccc3c2)C1` (stereo not shown) [Example 74, 1-{3-[2-(1-benzothiophen-5-yl)ethoxy]propyl}-3-pyrrolidinamine oxalate] displayed a residual rate in data set [1] of 71%. Moreover, in the data set on PC12 cells, the “neutrite outgrowth acceleration rate” value was 246%. For the same molecule, the “inhibition rate against decrease of MTT assay value induced by Aβ” value (“inhibition rate against decrease” for short) in data set [2] stood at 50%.

In the case of `OC1CN(CCCOCCc2cccc3sccc23)C1` [Example 12, 1-{3-[2-(1-benzothiophen-4-yl)ethoxy]propyl}-3-azetidinol hydrochloride], the “sciatic nerve regeneration rate” value in the data set on sciatic nerve is listed as 142%. In addition, the residual rate in data set [1] is reported as 83%. Also, in the data set on PC12 cells, the “neutrite outgrowth acceleration rate” value came to 299%.

`OC1CN(CCOCCc2ccc3sccc3c2)C1` (as salt: hydrochloride) [Example 2, 1-{2-[2-(1-benzothiophen-5-yl)ethoxy]ethyl}-3-azetidinol hydrochloride] returned a melting point of 101 to 102 °C.

For the molecule `O[C@H]1CCN(CCOCCc2ccc3sccc3c2)C1` [Example 31, (3S)-1-{2-[2-(1-benzothiophen-5-yl)ethoxy]ethyl}-3-pyrrolidinol oxalate], in the data set on sciatic nerve, the “sciatic nerve regeneration rate” value is recorded as 155%. Further, in data set [2], the “inhibition rate against decrease” value was 50%.

In data set [1], `OC1CCN(CCOCCc2ccc3ccccc3c2)C1` (stereo not shown) [Example 69, 1-{2-[2-(2-naphthyl)ethoxy]ethyl}-3-pyrrolidinol oxalate] had a residual rate of 74%. For the same molecule, the “neutrite outgrowth acceleration rate” value in the data set on PC12 cells came out at 233%. For the same molecule, the “inhibition rate against decrease” value in data set [2] was 70%.

Consider `OC1CCN(CCOCCc2cccc3ccccc23)C1` (stereo not shown) [Example 29, 1-{2-[2-(1-naphthyl)ethoxy]-ethyl}-3-pyrrolidinol oxalate], for which the “neutrite outgrowth acceleration rate” value in the data set with PC12 cells amounted to 212%.

In the case of `OC1CN(CCCOCCc2cc3ccccc3s2)C1` [Example 6, 1-{3-[2-(1-benzothiophen-2-yl)ethoxy]propyl}-3-azetidinol hydrochloride], the “neutrite outgrowth acceleration rate” value in the data set with PC12 cells was 300%. Besides, in data set [2], the “inhibition rate against decrease” value is on record as 48%.

`OC1CCN(CCCOCCc2ccc3occc3c2)C1` (stereo not shown) [Example 61, 1-{3-[2-(1-benzofuran-5-yl)ethoxy]propyl}-3-pyrrolidinol hydrochloride] came in with a residual rate in data set [1] of 74%. Further, the “inhibition rate against decrease” value in data set [2] is listed as 52%.

For `O[C@@H]1CCN(CCOCCc2ccc3sccc3c2)C1` [Example 33, (3R)-1-{2-[2-(1-benzothiophen-5-yl)ethoxy]ethyl}-3-pyrrolidinol oxalate], the “sciatic nerve regeneration rate” value in the data set on sciatic nerve stood at 161%. In addition, the “inhibition rate against decrease” value in data set [2] turned out to be 54%.

`OC1CN(CCCOCCc2ccc3sccc3c2)C1` [Example 81, 1-{3-[2-(1-benzothiophen-5-yl)ethoxy]propyl}-3-azetidinol 1/2 fumarate]: the “neutrite outgrowth acceleration rate” value with PC12 cells amounted to 190%.

Turning to `OC1CN(CCCOCCc2csc3ccccc23)C1` [Example 14, 1-{3-[2-(1-benzothiophen-3-yl)ethoxy]propyl}-3-azetidinol hydrochloride], in the data set with sciatic nerve, the “sciatic nerve regeneration rate” value stood at 150%. The molecule also yielded a residual rate in data set [1] of 75%. Further, the “neutrite outgrowth acceleration rate” value in the data set with PC12 cells was 207%. In addition, the “inhibition rate against decrease” value in data set [2] stood at 48%.

As for `OC1CCN(CCCOCCc2ccc3sccc3c2)C1` (stereo not shown) [Example 59, 1-{3-[2-(1-benzothiophen-5-yl)ethoxy]propyl}-3-pyrrolidinol hydrochloride], in the data set on PC12 cells, the “neutrite outgrowth acceleration rate” value was determined as 241%.

Regarding `CN(C)C1CCN(CCCOCCc2ccc3sccc3c2)C1` (stereo not shown) [Example 80, 1-{3-[2-(1-benzothiophen-5-yl)ethoxy]propyl}-N,N-dimethyl-3-pyrrolidinamine dihydrochloride], the “neutrite outgrowth acceleration rate” value with PC12 cells turned out to be 190%. Further, the “inhibition rate against decrease” value in data set [2] stood at 75%.

For `COc1cc2ccoc2cc1CCOCCN1CCC(O)C1` (stereo not shown) [Example 51, 1-{2-[2-(5-methoxy-1-benzofuran-6-yl)ethoxy]ethyl}-3-pyrrolidinol oxalate], the “neutrite outgrowth acceleration rate” value in the data set on PC12 cells amounted to 216%.

In turn, `O[C@@H]1CN(CCOCCc2ccc3sccc3c2)C[C@@H]1O` [Example 71, (3R, 4S)-1-{2-[2-(1-benzothiophen-5-yl)ethoxy]ethyl}-3,4-pyrrolidinediol hydrochloride] registered a residual rate in data set [1] of 80%. Moreover, the “neutrite outgrowth acceleration rate” value in the data set with PC12 cells is listed as 183%.

With `OC1CN(CCOCCc2ccc3sccc3c2)C1` [Example 2, 1-{2-[2-(1-benzothiophen-5-yl)ethoxy]ethyl}-3-azetidinol hydrochloride], in the data set on PC12 cells, the “neutrite outgrowth acceleration rate” value stood at 265%.

With `OC1CN(CCCOCCc2ccc3sccc3c2)C1` [Example 10, 1-{3-[2-(1-benzothiophen-5-yl)ethoxy]propyl}-3-azetidinol hydrochloride], the “sciatic nerve regeneration rate” value in the data set on sciatic nerve was determined as 186%. The molecule also registered a residual rate in data set [1] of 70%. For the same molecule, the “inhibition rate against decrease” value in data set [2] is given as 42%.

For the molecule `OC1CN(CCCOCCc2ccc3ccsc3c2)C1` [Example 4, 1-{3-[2-(1-benzothiophen-6-yl)ethoxy]propyl}-3-azetidinol hydrochloride], the “sciatic nerve regeneration rate” value in the data set with sciatic nerve was 167%. The residual rate in data set [1] was 80%. Besides, the “inhibition rate against decrease” value in data set [2] is 63%.
